The source of these data is US20080038220A1 (LABORATOIRES BESINS INTERNATIONAL, priority 2004, published 2008).

The nature of data set [1]: Testosterone solubility by the increment method. Type of data set: physicochemical. The following applies: thermodynamic from solid. On the procedure: A known amount of solvent (2 mL) is stirred at 37° C. in a closed Erlenmeyer.
Data set [2] has as its system sex hormone binding globulin, albumin. The following applies: cited from earlier work.
For data set [3], the target named is T1, sex hormone binding globulin, albumin (Homo sapiens, UniProt P04278).
T1 sequence (P04278 30-402): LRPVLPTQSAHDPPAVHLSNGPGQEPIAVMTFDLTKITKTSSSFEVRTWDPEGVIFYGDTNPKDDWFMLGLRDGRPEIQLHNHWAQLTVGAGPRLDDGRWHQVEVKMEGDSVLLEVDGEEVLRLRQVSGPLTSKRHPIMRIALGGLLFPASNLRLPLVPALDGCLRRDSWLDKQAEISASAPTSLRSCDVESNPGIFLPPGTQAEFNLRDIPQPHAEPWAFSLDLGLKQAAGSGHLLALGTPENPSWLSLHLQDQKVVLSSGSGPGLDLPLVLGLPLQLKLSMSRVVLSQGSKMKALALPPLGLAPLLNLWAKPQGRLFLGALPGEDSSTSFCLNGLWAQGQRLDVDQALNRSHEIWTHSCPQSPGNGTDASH
Particulars: cited from earlier work.

Data set [4] concerns the target sex hormone binding globulin, albumin (Homo sapiens, UniProt P02768). The following applies: cited from earlier work.

Values after ≈ are worked out from the molar mass of the structure shown. Read-outs that look alike come from different tables or passages of the source.

For orientation: solubility means the dissolved amount per volume that the medium holds.

sex hormone binding globulin, albumin (Homo sapiens, UniProt P02768), sequence (P02768 25-609): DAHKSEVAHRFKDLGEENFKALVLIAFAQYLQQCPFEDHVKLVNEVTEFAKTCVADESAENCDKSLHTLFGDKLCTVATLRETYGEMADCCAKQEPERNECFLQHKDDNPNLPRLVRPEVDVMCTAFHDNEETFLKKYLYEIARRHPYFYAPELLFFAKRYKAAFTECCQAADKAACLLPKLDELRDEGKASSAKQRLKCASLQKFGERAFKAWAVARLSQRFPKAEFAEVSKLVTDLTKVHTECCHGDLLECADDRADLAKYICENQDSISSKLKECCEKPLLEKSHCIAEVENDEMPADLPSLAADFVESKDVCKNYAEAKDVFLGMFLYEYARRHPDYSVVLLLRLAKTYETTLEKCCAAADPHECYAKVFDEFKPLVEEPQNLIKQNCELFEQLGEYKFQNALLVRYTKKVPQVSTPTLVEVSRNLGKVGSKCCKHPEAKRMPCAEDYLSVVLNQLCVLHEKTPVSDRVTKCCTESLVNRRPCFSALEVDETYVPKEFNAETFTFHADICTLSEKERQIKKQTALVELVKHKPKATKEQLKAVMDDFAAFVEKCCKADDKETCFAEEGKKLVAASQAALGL

Regarding `C[C@]12CC[C@H]3[C@@H](CCC4=CC(=O)CC[C@@]43C)[C@@H]1CC[C@@H]2O` [Testosterone], the solubility in data set [1] (aqueous with cosolvent or surfactant or cyclodextrin, water/ethanol mixture, 95% ethanol (v/v) 63/37, 37° C.) stood at 30 mg/mL (≈ 104 mM); in data set [1] (aqueous with cosolvent or surfactant or cyclodextrin, water/ethanol mixture, 95% ethanol (v/v) 74/26, 37° C.), 52 mg/mL (≈ 180 mM); in data set [1] (aqueous with cosolvent or surfactant or cyclodextrin, water/ethanol mixture, 95% ethanol (v/v) 84/16, 37° C.) it was 120 mg/mL (≈ 416 mM); in data set [1] (aqueous with cosolvent or surfactant or cyclodextrin, water/ethanol mixture, 95% ethanol (v/v) 86/14, 37° C.), 160 mg/mL (≈ 555 mM); in data set [1] (oleic acid (OA) 100%, oil or lipid, solvent OA (100%), 37° C.), 66 mg/mL (≈ 229 mM); in data set [1] (organic solvent or mixture, solvent Transcutol (100%), 37° C.) it was 140 mg/mL (≈ 485 mM). Besides, the solubility is 340 mg/mL (≈ 1180 mM) in data set [1] (organic solvent or mixture, water/ethanol mixture, 95% ethanol (v/v) 100/0, 37° C.); 86 mg/mL (≈ 298 mM) in data set [1] (propylene glycol (PG) 100%, organic solvent or mixture, solvent PG (100%), 37° C.); 18 mg/mL (≈ 62.4 mM) in data set [1] (propylene glycol dipelargonate (PGDP) 100%, oil or lipid, solvent PGDP (100%), 37° C.); 79 mg/mL (≈ 274 mM) in data set [1] (propylene glycol/oleic acid (PG/OA) 50/50, organic solvent or mixture, solvent PG/OA (50/50), 37° C.). The “bound to protein in the blood” value in data set [2] (men) and in data set [2] (women) was 98% in each case. Also, the entries for the “share of the binding to sex hormone binding globulin” value in data set [3] (men) and in data set [3] (women) were “approximately 40%” and “approximately 66%”, respectively. Moreover, the “share bound weakly to albumin” value in data set [4] (men) is reported as 60%; in data set [4] (women), 34%.
